Reference: patent publication US7517658B2, “Methods for preparing compositions using a SNORF33 receptor” (H. Lundbeck A/S, priority 1999, dated 2009)

Assays:
rSNORF33 [1] = target: T1, rSNORF33 (Rattus norvegicus, UniProt Q923Y9); experiment: Cl- currents in Xenopus oocytes expressing rSNORF33 and CFTR (voltage clamp); format: cell-based; details: for EC50: oocytes expressing rSNORF33 and CFTR, -80 mV, mean ± S.E.M., read-out: Calculated EC50, Cl- current
Protocol: Female Xenopus laevis (Xenopus-1, Ann Arbor, Mich.) were anesthetized in 0.2% tricain (3-aminobenzoic acid ethyl ester, Sigma Chemical Corp.) and a portion of ovary was removed using aseptic technique (Quick and Lester, 1994). Oocytes were defolliculated, using 3 mg/ml collagenase (Worthington Biochemical Corp., Freehold, N.J.) in a solution containing 82.5 mM NaCl, 2 mM KCl, 1 mM MgCl2 and 5 mM HEPES, pH 7.5, and injected (Nanoject, Drummond Scientific, Broomall, Pa.) 24 h later with 50-70 nl of individual mRNAs or mRNA mixtures (see below).
Elevation of intracellular cAMP is monitored in oocytes by expression of the cystic fibrosis transmembrane conductance regulator (CFTR) whose Cl^−-selective pore opens in response to phosphorylation by protein kinase A (Riordan, 1993). To prepare RNA transcripts for expression in oocytes, a template was created by PCR using 5′ and 3′ primers derived from the published sequence of the CFTR gene (Riordan, 1993). The 5′ primer included the sequence coding for T7 polymerase so that transcripts could be generated directly from the PCR products without cloning. Oocytes were injected with 10 ng of CFTR mRNA in addition to 10-15 ng mRNA for SNORF33. Electrophysiological recordings were made after a 2-3 day incubation at 18° C.
Dual electrode voltage clamp (“GeneClamp”, Axon Instruments Inc., Foster City, Calif.) was performed using 3 M KCl-filled glass microelectrodes having resistances of 1-3 Mohms. Unless otherwise specified, oocytes were voltage clamped at a holding potential of −80 mV. During recordings, oocytes were bathed in continuously flowing (1-3 ml/min) medium containing 96 mM NaCl, 2 mM KCl, 1.8 mM CaCl2, 1 mM MgCl2, and 5 mM HEPES, pH 7.5 (ND96). […] Experiments were carried out at room temperature. All values are expressed as mean±standard error of the mean.

rSNORF33 [2] = target: T1, rSNORF33; experiment: Intracellular cAMP release in rSNORF33-transfected COS-7 cells; format: cell-based; design: expressed in transfected cells; host or cells: COS-7 (transient); details: transiently transfected COS-7 cells; 3–8 experiments; read-out: Mean EC50 ± S.E.M., stimulation of rSNORF33 measured by intracellular cAMP release
Protocol: The receptor-mediated stimulation or inhibition of cyclic AMP (cAMP) formation may be assayed in cells expressing the mammalian receptors. Cells are plated in 96-well plates or other vessels and preincubated in a buffer such as HEPES buffered saline (NaCl (150 mM), CaCl2 (1 mM), KCl (5 mM), glucose (10 mM)) supplemented with a phosphodiesterase inhibitor such as 5 mM theophylline, with or without protease inhibitor cocktail (For example, a typical inhibitor cocktail contains 2 μg/ml aprotinin, […] leupeptin, and 10 μg/ml phosphoramidon.) for 20 min at 37° C., in 5% CO2. Test compounds are added with or without […] forskolin and incubated for an additional 10 min at 37° C. The medium is then aspirated and the reaction stopped by the addition of 100 mM HCl or other methods. The plates are stored at 4° C. for 15 min, and the cAMP content in the stopping solution is measured by radioimmunoassay. Radioactivity may be quantified using a gamma counter equipped with data reduction software. Specific modifications may be performed to optimize the assay for the receptor or to alter the detection method of cAMP.
COS-7 cells were transiently transfected with rSNORF33 gene using the calcium phosphate method and plated in 96-well plates. 48 hours after transfection, cells were washed twice with Dulbecco's phosphate buffered saline (PBS) supplemented with 10 mM HEPES, 10 mM glucose, 5 mM theophylline and 10 μM pargyline and were incubated in the same buffer for 20 min at 37° C., in […] 5% CO2. Test compounds were added and cells were incubated for an additional 10 min at 37° C. The medium was then aspirated and the reaction stopped by the addition of 100 mM HCl. The plates were stored at −20° C. for 2-5 days. For cAMP measurement, plates were thawed and the cAMP content in each well was measured by radioimmunoassay cAMP Scintillation Proximity Assay (Amersham Pharmacia Biotech). Radioactivity was quantified using microbeta Trilux counter (Wallac).

T1 sequence (Q923Y9 whole entry): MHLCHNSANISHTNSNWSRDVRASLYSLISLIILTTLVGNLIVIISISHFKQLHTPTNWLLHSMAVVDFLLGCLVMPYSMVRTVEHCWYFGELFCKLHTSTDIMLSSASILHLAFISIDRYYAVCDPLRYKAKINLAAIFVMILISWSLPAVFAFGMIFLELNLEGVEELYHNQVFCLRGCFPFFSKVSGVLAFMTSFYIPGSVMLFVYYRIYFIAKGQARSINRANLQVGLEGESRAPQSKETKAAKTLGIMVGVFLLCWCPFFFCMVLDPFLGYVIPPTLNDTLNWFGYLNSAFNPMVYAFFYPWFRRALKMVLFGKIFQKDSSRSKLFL

Row | Cl- currents elicited (rSNORF33 [1]; at 100 μM) | SMILES | Cl- currents elicited (rSNORF33 [1]; 1-100 μM) | EC50 (rSNORF33 [1]) [µM] | EC50 (rSNORF33 [2]) [µM]
1 |  | NCCc1c[nH]c2ccccc12 [Tryptamine (T), Tryptamine] | produced this activity | 0.054 ± 0.01 | 0.017 ± 0.004
2 |  | NCCc1ccc(O)cc1 [Tyramine (TYR), Tyramine] | produced this activity | 0.037 ± 0.0044 | 0.009 ± 0.006
3 | elicited Cl^− currents | NCC(O)c1ccc(O)cc1 (stereo not drawn) [Octopamine (OCT), Octopamine] |  | 0.635 ± 0.151 | 0.135 ± 0.054
